Measured values from the supplement of paper PMC10702517.
± gives the standard deviation.

Legend:
[1] = chemical recovery from spiked human plasma; higher = better extraction; settings: pooled human plasma
[2] = chemical recovery into PDMS from spiked human plasma; higher = better extraction; settings: pooled human plasma, extraction method: PES with PDMS
[3] = chemical recovery by SPE of plasma after PDMS sampling; higher = better extraction; settings: pooled human plasma, extraction method: HLB SPE of plasma after PES
[4] = extraction method: PES+SPE (3 d PDMS equilibration then HLB SPE)
[5] = extraction method: SPE only (HLB 96-well)
[6] = extraction method: SPE only (HLB 96-well), PES comparison experiment
[7] = extraction method: solvent precipitation (ACN + hexane)
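For chemical recovery by SPE of plasma after PDMS sampling in this document: over 400 spiked chemicals quantified by LC-HRMS or GC-HRMS via internal standard calibration, recovery relative to spike mix added to unspiked plasma extract to correct matrix effects.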

Row | chemical recovery [1, 4] | chemical recovery [1, 5] | chemical recovery [1, 6] | chemical recovery [1, 7] | chemical recovery into PDMS ([2]; equilibration time (d): 1) | chemical recovery into PDMS ([2]; equilibration time (d): 3) | chemical recovery into PDMS ([2]; equilibration time (d): 6) | chemical recovery by SPE of plasma ([3]; equilibration time (d): 1) | chemical recovery by SPE of plasma ([3]; equilibration time (d): 3) | chemical recovery by SPE of plasma ([3]; equilibration time (d): 6) | Compound
1 |  | 33.5 ± 9.6% | 19.8 ± 4.6% |  | 45.3 ± 4.8% | 48.5 ± 4.6% | 46.7 ± 2.5% |  |  |  | CC(C)c1ccc2sc3ccccc3c(=O)c2c1 [2-Isopropylthioxanthone]
2 | 0.502 ± 0.11% | 0.392 ± 0.68% |  |  |  | 0.00395 ± 0.0068% |  |  |  |  | O=c1[nH]cc(F)c(=O)[nH]1 [5-Fluorouracil]
3 |  |  | 51.1 ± 7.7% |  | 7.94 ± 0.8% | 12.2 ± 1.3% | 13.1 ± 1.1% |  |  |  | CC(=O)[C@@]1(O)CC[C@H]2[C@@H]3CCC4=CC(=O)CC[C@]4(C)[C@H]3CC[C@@]21C [17alpha-Hydroxyprogesterone]
4 |  |  | 33.5 ± 7.2% |  | 24.8 ± 3.2% | 11 ± 4% | 13.3 ± 4.5% |  |  |  | N#CSCSc1nc2ccccc2s1 [(Benzothiazol-2-ylthio)methyl thiocyanate]
5 |  |  | 17.7 ± 2.9% |  | 70 ± 4.1% | 79.7 ± 8.8% | 80.6 ± 8% |  |  |  | c1ccc2cc3ccccc3cc2c1 [Anthracene]
6 |  | 66.8 ± 24% |  |  |  |  | 0.508 ± 1% |  |  |  | CCCCCCCCCCCCCC[N+](C)(C)Cc1ccccc1 [Benzyldimethyltetradecylammonium]
7 |  |  | 39.3 ± 5.3% |  | 42.4 ± 3% | 44 ± 1.3% | 45.4 ± 3.2% |  |  |  | CCC(=O)OCC(=O)[C@@]1(OC(=O)CC)[C@@H](C)C[C@H]2[C@@H]3CCC4=CC(=O)C=C[C@]4(C)[C@@]3(F)[C@@H](O)C[C@@]21C [Betamethasone dipropionate]
8 |  |  |  |  | 75.4 ± 13% | 90.3 ± 7% | 87.5 ± 2.9% |  |  |  | O=C1C2CC3C1C1(Cl)C(Cl)C4(Cl)C2C3C1(Cl)C4(Cl)Cl (stereo not drawn) [Endrinketone]
9 |  | 97.9 ± 4.8% |  |  |  |  |  | 44.3 ± 5.8% | 50.6 ± 2.1% | 43.4 ± 3% | Cc1cccc(C)c1N(Cn1cccn1)C(=O)CS(=O)(=O)O [Metazachlor ESA]
10 | 0.467 ± 0.11% | 0.483 ± 0.27% | 0.192 ± 0.098% | 44.8 ± 6.5% |  |  |  | 0.224 ± 0.23% | 0.612 ± 0.32% | 0.886 ± 0.81% | Cn1ccnc1S [Methimazol]
11 |  |  | 41 ± 6% |  |  |  |  |  | 54.2 ± 4.1% | 47.4 ± 3% | CCc1cccc(C)c1N(C(=O)C(=O)O)C(C)C(=O)O (stereo not drawn) [Metolachlor CGA 357-704]
12 |  |  | 47.9 ± 5.2% |  |  |  |  | 37.9 ± 8.1% | 46.1 ± 2.7% | 43.1 ± 7.2% | CCc1cccc(C)c1NC(=O)CS(=O)(=O)O [Metolachlor CGA 368-208]
13 | 0.65 ± 0.11% | 33.2 ± 2.9% | 46.9 ± 4% | 69.1 ± 3.4% |  |  |  | 38.9 ± 5.3% | 42.9 ± 5.7% | 39.7 ± 6.8% | CCc1cccc(C)c1N(C(=O)CS(=O)(=O)O)C(C)COC (stereo not drawn) [Metolachlor ESA]
14 | 44.01 ± 0.38% | 45.5 ± 3.8% | 53.5 ± 4.5% | 70.9 ± 5.3% |  |  |  | 48.6 ± 4.3% | 53 ± 2.7% | 46.3 ± 2% | COc1c(C)c2c(c(O)c1C/C=C(\C)CCC(=O)O)C(=O)OC2 [Mycophenolic acid]
15 |  | 55.1 ± 13% | 43.2 ± 7.2% |  |  |  |  | 23.5 ± 3.5% | 17.7 ± 3% | 9.46 ± 8.3% | CCCCCCCCCCCC[N+](C)(C)[O-] [N,N-Dimethyldodecylamine N-oxide]
16 |  |  | 58.9 ± 4.9% |  |  |  |  | 56.2 ± 8.4% | 61.6 ± 4.1% | 55.1 ± 4.2% | CC(=O)Nc1ccc(O)c(C(=O)O)c1 [N-Acetyl mesalazine]
17 | 45.4 ± 6.6% | 48.7 ± 6.1% |  |  |  |  |  | 11.4 ± 0.85% | 17.5 ± 1.5% | 11.5 ± 1.4% | CCCCNS(=O)(=O)c1ccccc1 [N-Butylbenzenesulfonamide]
18 |  |  | 44.7 ± 7.9% | 62.7 ± 5.7% |  |  |  | 0.209 ± 0.36% |  |  | CCCCCCCCCCCCNC [N-Methyldodecylamine]
19 | 66 ± 2.3% | 63.8 ± 1.9% | 73.3 ± 9.3% | 70.2 ± 4.7% |  |  |  |  | 36.6 ± 5.5% | 36.5 ± 9.1% | COc1ccc2cc(C(C)C(=O)O)ccc2c1 (stereo not drawn) [Naproxen]
20 |  |  |  | 17 ± 2.7% |  |  |  |  | 1.02 ± 0.27% |  | Oc1nc(O)c2cn[nH]c2n1 [Oxypurinol]
21 | 26.4 ± 3.3% | 23.3 ± 2.6% | 41.2 ± 3.3% | 73 ± 7.5% |  |  |  | 24.1 ± 6% | 23.9 ± 1.9% | 23.3 ± 8.1% | O=C(O)C(F)(F)C(F)(F)C(F)(F)F [Perfluorobutanoic acid]

Row | Compound | chemical recovery [1, 4] | chemical recovery [1, 5] | chemical recovery [1, 6] | chemical recovery [1, 7] | chemical recovery into PDMS ([2]; equilibration time (d): 1) | chemical recovery into PDMS ([2]; equilibration time (d): 3) | chemical recovery into PDMS ([2]; equilibration time (d): 6) | chemical recovery by SPE of plasma ([3]; equilibration time (d): 1) | chemical recovery by SPE of plasma ([3]; equilibration time (d): 3) | chemical recovery by SPE of plasma ([3]; equilibration time (d): 6)
22 | Nc1ccccc1-c1ccccc1 [2-Aminobiphenyl] | 17.3 ± 3.9% | 22.6 ± 0.6% | 27.7 ± 4.4% | 2.86 ± 5% | 14.2 ± 6.8% | 14 ± 7.3% |  |  |  | 
23 | Clc1ccc(C(c2ccc(Cl)cc2)C(Cl)Cl)cc1 [4,4-DDD] |  |  |  |  | 1.61 ± 0.67% | 1.42 ± 0.086% | 1.39 ± 0.11% |  |  | 
24 | c1ccc2cc3c(cc2c1)-c1cccc2cccc-3c12 [Benzo(k)fluoranthene] |  | 1.23 ± 0.43% |  | 50.7 ± 1.6% |  | 92.5 ± 5.6% | 93.8 ± 18% |  |  | 
25 | c1ccc2sc(SNC3CCCCC3)nc2c1 [N-Cyclohexyl-2-benzothiazole-sulfenamide] |  |  | 44.1 ± 3.7% |  |  |  |  | 42.3 ± 7.4% | 43.6 ± 3.3% | 42.3 ± 4.2%
26 | COc1cc(OC)nc(NC(=O)NS(=O)(=O)c2ncccc2C(=O)N(C)C)n1 [Nicosulfuron] |  | 44.7 ± 3.3% | 49.3 ± 3.4% | 64.3 ± 2.2% |  |  |  | 51.6 ± 5.2% | 56 ± 2.5% | 50.3 ± 3.3%
27 | Clc1ccc(-c2ccc(Cl)cc2Cl)cc1 [PCB28] |  | 5.86 ± 1.6% | 20.3 ± 4.4% |  |  |  |  | 1.11 ± 1% | 1.62 ± 0.27% | 1.51 ± 0.26%
28 | Clc1ccc(Cl)c(-c2cc(Cl)ccc2Cl)c1 [PCB52] | 48.5 ± 8.4% | 3.67 ± 0.85% | 16.2 ± 3.2% |  |  |  |  | 1.19 ± 0.83% | 1.25 ± 0.28% | 1.09 ± 0.3%
29 | O=C(O)C(F)(F)C(F)(F)C(F)(F)C(F)(F)C(F)(F)C(F)(F)C(F)(F)C(F)(F)C(F)(F)F [Perfluorodecanoic acid] |  | 20.4 ± 10% |  |  |  |  |  | 25.3 ± 4.6% | 24.1 ± 4.5% | 
30 | CC(=O)c1cc2c(cc1C)C(C)(C)C(C)C2(C)C (stereo not drawn) [Phantolide] |  |  |  |  | 32.9 ± 0.97% | 37.4 ± 3.8% | 34.1 ± 3.6% |  |  | 
